# System: recombinant NL4-3 virus (Renilla luciferase in nef, Gag P373S; NLRluc) in MT-2 cells
# Assay: whole plant or invertebrate
# Assay type: cell-based, HIV
# Conditions: Renilla, NL43, luciferase activity in cells infected for 4-5 days with NLRluc recombinants, serial dilutions of inhibitor; class symbols (key in Table 1); read-out: EC50
# How it was run: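 MT-2 cells in RPMI 1640 with 10% heat-inactivated FBS were infected with the reporter virus, made by transfecting the proviral clone into 293T cells, and cultured 4-5 days with serial inhibitor dilutions. Antiviral activity was quantified from Renilla luciferase activity measured in lysed cells.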
row,Compound,EC50 [nM]
1,"C=C(C)[C@@H]1CC[C@]2(NC(=O)[C@@H]3C[C@H](NC(=O)OCc4ccccc4)C3(C)C)CC[C@]3(C)[C@H](CC[C@@H]4[C@@]5(C)CC=C(c6ccc(C(=O)O)cc6)C(C)(C)[C@@H]5CC[C@]43C)[C@@H]12 [Example 130-3, 4-((1R,3aS,5aR,5bR,7aR,11aS,11bR,13aR,13bR)-3a-((1R,3S)-3-(((benzyloxy)carbonyl)amino)-2,2-dimethylcyclobutanecarboxamido)-5a,5b,8,8,11a-pentamethyl-1-(prop-1-en-2-yl)-2,3,3a,4,5,5a,5b,6,7,7a,8,11,11a,11b,12,13,13a,13b-octadecahydro-1H-cyclopenta[a]chrysen-9-yl)benzoic acid]",< 100
2,"C=C(C)[C@@H]1CC[C@]2(NS(=O)(=O)Cc3ccccn3)CC[C@]3(C)[C@H](CC[C@@H]4[C@@]5(C)CC=C(c6ccc(C(=O)O)cc6)C(C)(C)[C@@H]5CC[C@]43C)[C@@H]12 [Example 131, 4-((1R,3aS,5aR,5bR,7aR,11aS,11bR,13aR,13bR)-5a,5b,8,8,11a-pentamethyl-1-(prop-1-en-2-yl)-3a-(pyridin-2-ylmethylsulfonamido)-2,3,3a,4,5,5a,5b,6,7,7a,8,11,11a,11b,12,13,13a,13b-octadecahydro-1H-cyclopenta[a]chrysen-9-yl)benzoic acid]",< 100
3,"C=C(C)[C@@H]1CC[C@]2(NCc3ccnc(F)c3)CC[C@]3(C)[C@H](CC[C@@H]4[C@@]5(C)CC=C(c6ccc(C(=O)O)cc6)C(C)(C)[C@@H]5CC[C@]43C)[C@@H]12 [Example 132, 4-((1R,3aS,5aR,5bR,7aR,11aS,11bR,13aR,13bR)-3a-((2-fluoropyridin-4-yl)methylamino)-5a,5b,8,8,11a-pentamethyl-1-(prop-1-en-2-yl)-2,3,3a,4,5,5a,5b,6,7,7a,8,11,11a,11b,12,13,13a,13b-octadecahydro-1H-cyclopenta[a]chrysen-9-yl)benzoic acid]",< 100
4,"C=C(C)[C@@H]1CC[C@]2(NCCS(=O)(=O)CCO)CC[C@]3(C)[C@H](CC[C@@H]4[C@@]5(C)CC=C(c6ccc(C(=O)O)cc6)C(C)(C)[C@@H]5CC[C@]43C)[C@@H]12 [Example 135, 4-((1R,3aS,5aR,5bR,7aR,11aS,11bR,13aR,13bR)-3a-(2-(2-hydroxyethylsulfonyl)ethylamino)-5a,5b,8,8,11a-pentamethyl-1-(prop-1-en-2-yl)-2,3,3a,4,5,5a,5b,6,7,7a,8,11,11a,11b,12,13,13a,13b-octadecahydro-1H-cyclopenta[a]chrysen-9-yl)benzoic acid]",< 100
5,"C=C(C)[C@@H]1CC[C@]2(NCCS(C)(=O)=O)CC[C@]3(C)[C@H](CC[C@@H]4[C@@]5(C)CC=C(c6ccc(C(=O)O)cc6)C(C)(C)[C@@H]5CC[C@]43C)[C@@H]12 [Example 136, 4-((1R,3aS,5aR,5bR,7aR,11aS,11bR,13aR,13bR)-5a,5b,8,8,11a-pentamethyl-3a-(2-(methylsulfonyl)ethylamino)-1-(prop-1-en-2-yl)-2,3,3a,4,5,5a,5b,6,7,7a,8,11,11a,11b,12,13,13a,13b-octadecahydro-1H-cyclopenta[a]chrysen-9-yl)benzoic acid]",< 100
6,"C=C(C)[C@@H]1CC[C@]2(NCCN3CCS(=O)(=O)CC3)CC[C@]3(C)[C@H](CC[C@@H]4[C@@]5(C)CC=C(c6ccc(C(=O)O)cc6)C(C)(C)[C@@H]5CC[C@]43C)[C@@H]12 [Example 137, 4-((1R,3aS,5aR,5bR,7aR,11aS,11bR,13aR,13bR)-3a-((2-(1,1-dioxido-4-thiomorpholinyl)ethyl)amino)-1-isopropenyl-5a,5b,8,8,11a-pentamethyl-2,3,3a,4,5,5a,5b,6,7,7a,8,11,11a,11b,12,13,13a,13b-octadecahydro-1H-cyclopenta[a]chrysen-9-yl)benzoic acid]",< 100
7,"C=C(C)[C@@H]1CC[C@]2(NCCNC(=O)OC(C)(C)C)CC[C@]3(C)[C@H](CC[C@@H]4[C@@]5(C)CC=C(c6ccc(C(=O)O)cc6)C(C)(C)[C@@H]5CC[C@]43C)[C@@H]12 [Example 138, 4-((1R,3aS,5aR,5bR,7aR,11aS,11bR,13aR,13bR)-3a-(2-(tert-butoxycarbonylamino)ethylamino)-5a,5b,8,8,11a-pentamethyl-1-(prop-1-en-2-yl)-2,3,3a,4,5,5a,5b,6,7,7a,8,11,11a,11b,12,13,13a,13b-octadecahydro-1H-cyclopenta[a]chrysen-9-yl)benzoic acid]",< 100
8,"C=C(C)[C@@H]1CC[C@]2(NCCN)CC[C@]3(C)[C@H](CC[C@@H]4[C@@]5(C)CC=C(c6ccc(C(=O)O)cc6)C(C)(C)[C@@H]5CC[C@]43C)[C@@H]12 [Example 139, 4-((1R,3aS,5aR,5bR,7aR,11aS,11bR,13aR,13bR)-3a-(2-aminoethylamino)-5a,5b,8,8,11a-pentamethyl-1-(prop-1-en-2-yl)-2,3,3a,4,5,5a,5b,6,7,7a,8,11,11a,11b,12,13,13a,13b-octadecahydro-1H-cyclopenta[a]chrysen-9-yl)benzoic acid]",< 100

# Same assay, conditions: Renilla, NL43, luciferase activity in cells infected for 4-5 days with NLRluc recombinants, serial dilutions of inhibitor; numeric values; read-out: EC50
row,Compound,EC50 [nM]
1,"C=C(C)[C@@H]1CC[C@]2(NCc3ccc(F)cn3)CC[C@]3(C)[C@H](CC[C@@H]4[C@@]5(C)CC=C(c6ccc(C(=O)O)cc6)C(C)(C)[C@@H]5CC[C@]43C)[C@@H]12 [Example 133, 4-((1R,3aS,5aR,5bR,7aR,11aS,11bR,13aR,13bR)-3a-((5-fluoropyridin-2-yl)methylamino)-5a,5b,8,8,11a-pentamethyl-1-(prop-1-en-2-yl)-2,3,3a,4,5,5a,5b,6,7,7a,8,11,11a,11b,12,13,13a,13b-octadecahydro-1H-cyclopenta[a]chrysen-9-yl)benzoic acid]",30
2,"C=C(C)[C@@H]1CC[C@]2(NCc3ncccc3C(F)(F)F)CC[C@]3(C)[C@H](CC[C@@H]4[C@@]5(C)CC=C(c6ccc(C(=O)O)cc6)C(C)(C)[C@@H]5CC[C@]43C)[C@@H]12 [Example 134, 4-((1R,3aS,5aR,5bR,7aR,11aS,11bR,13aR,13bR)-5a,5b,8,8,11a-pentamethyl-1-(prop-1-en-2-yl)-3a-((3-(trifluoromethyl)pyridin-2-yl)methylamino)-2,3,3a,4,5,5a,5b,6,7,7a,8,11,11a,11b,12,13,13a,13b-octadecahydro-1H-cyclopenta[a]chrysen-9-yl)benzoic acid]",100
3,"C=C(C)[C@@H]1CC[C@]2(NCCNCCC(=O)O)CC[C@]3(C)[C@H](CC[C@@H]4[C@@]5(C)CC=C(c6ccc(C(=O)O)cc6)C(C)(C)[C@@H]5CC[C@]43C)[C@@H]12 [Example 140, 4-((1R,3aS,5aR,5bR,7aR,11aS,11bR,13aR,13bR)-3a-(2-(2-carboxyethylamino)ethylamino)-5a,5b,8,8,11a-pentamethyl-1-(prop-1-en-2-yl)-2,3,3a,4,5,5a,5b,6,7,7a,8,11,11a,11b,12,13,13a,13b-octadecahydro-1H-cyclopenta[a]chrysen-9-yl)benzoic acid]",9

# Reference: US20140343000A1 (priority 2011, published 2014)
